Key:
LGG = assay: HPLC analysis of tryptophan metabolites in LGG MRS broth; assay type: cell-based, Lactobacillus rhamnosus
Description: HPLC Analysis of Tryptophan Metabolites. The fecal samples and LGG MRS broth were diluted with an equal volume of methanol. After centrifugation at 10,000×g for 30 minutes, 50 μl of supernatant was injected for high-performance liquid chromatography (HPLC) analysis. The HPLC analysis was performed on an Agilent 1260 Infinity system equipped with an Agilent ZORBAX SB-C18 column (4.6×150 mm, 3.5 μm), with following parameters: mobile phase A: 5 mM NH4Ac in water modified with 0.1% formic acid (v/v); mobile phase B: 5 mM NH4Ac in 90% acetonitrile modified with 0.1% formic acid (v/v); gradient: 5% B in first 5 min, 5-20% B for 10 min, hold 20% B for 5 min, 20%-50% B for 5 min, hold 50% B for 5 min, 50%-100% B for 5 min, hold 100% B for 10 min, 100-5% B for 5 min; flow rate: 1.0 ml/min; temperature: 30° C. UV detection at 300 nm was used to monitor indole-3-carboxaldehyde (I3A) and indole-3-acetaldehyde (IAAld); FLD (ex=280 nm; em=350 nm) was used for detection of tryptophan and indole-3-acetamide (I3AM). The standard for I3A (Catalog No. 129445-5g), I3AM (Catalog No. 286281-1G), IAAld (Catalog No. I1000-25MG), and tryptophan (Catalog No. T0254-25g) were purchased from Sigma.

IL-22, IL-1β, TNFα = assay: ELISA of IL-22, IL-1β and TNFα in colon mucus; assay type: in vivo, mice
Description: (§1) Enzyme-Linked Immunosorbent Assay (ELISA). The cytokine IL-22, IL-1β, and TNFα levels in cell culture supernatants or mouse colon mucus were quantified using ELISA kits (eBioscience) according to the manufacturer's instructions. Briefly, a microtiter plate was coated with anti-mouse IL-22, IL-1β and TNFα antibody at 1:200 overnight at 4° C. Excess binding sites were blocked with 200 μl of 1×ELISA/ELISPoT Diluent (eBioscience, San Diego, California, United States of America) for 1 hour at 22° C. After washing three times with PBS containing 0.05% Tween 20, the plate was incubated with detection antibody in blocking buffer for 1 hour at 22° C. After three washes, avidin conjugated with horseradish peroxidase and substrate were each added sequentially for 1 hour and 30 min at 22° C. An analysis of absorbance at 405 nm using a microtiter plate reader (BioTek Synergy HT, BioTek Instruments, Inc., Winooski, Vermont, United States of America) followed.

colon lymphocytes = assay: ELISA of IL-22 in supernatants of isolated colon lymphocytes; assay type: cell-based, mice
Description: as §1, with “1×[…]” for “1×ELISA/ELISPoT”, “[…] Isolation” for “An analysis”, “Lymphoid Cells in the Colon. Intestinal lymphoid cells were isolated from the intestine by incubation in PBS supplemented with 1 mM EDTA, 15 mM HEPES and 10% FCS for 30 minutes” for “absorbance”, “37° C. Supernatants were discarded, and tissues were then incubated in RPMI supplemented with 15 mM HEPES and 300 units/mL collagenase type VIII (Sigma) for 30 minutes with gentle shaking. Lysates were gently pressed through nylon cell strainers (70 μm in diameter; […] Lymphocytes were recovered from the interface and washed twice.” for “405 nm using a microtiter plate reader (BioTek Synergy HT, BioTek Instruments, Inc., Winooski, Vermont, United States of America) followed.”

monooxygenase ycnE = assay: ycnE expression in LGG (qPCR, mRNA sequencing, LC-MS/MS); assay type: cell-based, Lactobacillus rhamnosus
Description: Quantitative Real-Time PCR for RNA Expression. The quantity of mature miRNAs was determined with quantitative real-time PCR (qPCR) using a miScript II RT kit (QIAGEN Inc., Germantown, Maryland, United States of America) and miScript SYBR Green PCR Kit (QIAGEN) with QIAGEN 3′ universal primers. For analysis of gene mRNA expression, 1 μg of total RNA was reverse transcribed using SuperScript III reverse transcriptase (Invitrogen, Waltham, Massachusetts, United States of America), and quantitation was performed using SsoAdvanced™ Universal SYBR Green Supermix (Bio-Rad Laboratories, Inc., Hercules, California, United States of America) and the listed primers (Table 1) with SsoAdvanced™ Universal SYBR Green Supermix (Bio-Rad). qPCR was performed using a Bio-Rad CFX96 qPCR System with each reaction run in triplicate. Analysis and fold-changes were determined using the comparative threshold cycle (Ct) method. Changes in miRNA or mRNA expression were calculated as fold-change. […]
LGG mRNA Sequencing. […] Following quantitation with Qubit dsDNA HS Reagent (Catalog No., Q32854; Thermo Scientific,), 10 ng of dscDNA/sample was fragmented with an E220 Focused-ultrasonicator (Covaris, Matthews, North Carolina, United States of America). […] Libraries were then combined into equimolar pools, which were then measured for size and concentration. […] The first and second reads were each 83 bases.

MC-38 cells = assay: Migration assay, intracellular LGG; assay type: cell-based, C57BL/6 murine
Description: Cells. C57BL/6 murine colon adenocarcinoma MC-38 cells (gender unknown; Kerafast, Inc., Boston, Massachusetts, United States of America) or human epithelial colorectal adenocarcinoma Caco-2 cells (American Type Culture Collection, ATCC®, Manassas, Virginia, United States of America) were grown in tissue culture plates with Dulbecco's modified Eagle's medium (DMEM) supplemented with 10% heat-inactivated fetal bovine serum (FBS), 100 U/mL penicillin, and 100 μg/mL streptomycin at 37° C. in a 5% CO2 atmosphere.
Migration Assays. MC-38 or Caco-2 cells (ATCC) were seeded at 1×10^5 cells per well in a 12-well tissue culture plate with Dulbecco's modified Eagle's medium (DMEM) without antibiotics. The cells were inoculated with 1×10^7 bacteria per well for 90 minutes at 37° C. in a 5% CO2 atmosphere to allow bacterial adhesion and entry. The number of intracellular bacteria was quantified as described in Zhang & Wang, 1998.

`O=CCc1c[nH]c2ccccc12` [IAAld, indole-3-acetaldehyde] was tested, and the “inhibitory effect of I3AM on the production of I3A” value (LGG; additional IAAld) was “cancelled” and the “I3AM-mediated inhibitory effect on IL-22 production” value (IL-22, IL-1β, TNFα; colon mucus of WT mice gavaged with MRS medium from treated LGG) was “cancelled the I3AM-mediated inhibitory effort on IL-22 production”.

For `O=Cc1c[nH]c2ccccc12` [I3A, indole-3-carboxaldehyde], the “induction of IL-22 in colon lymphocytes from AHR KO mice” value (colon lymphocytes; AHR KO mice) was “no evidence of an impact” and the “IL-22 in supernatants of colon lymphocytes” value (colon lymphocytes; colon lymphocytes from naïve B6 mice incubated for 3 hours) was “induced expression of IL-22”.

With “mdo-miR7267-3p: GELN-derived miRNA, SEQ ID NO: 129 (CAUCCAGCCAUCCACCCCAGGCCAUC; expressed or natural sequence)” the “I3A in LGG cultures” value (LGG) was “induction of I3A”, the “I3AM in LGG cultures” value (LGG) was “inhibition of I3AM” and the “ycnE expression in LGG” value (monooxygenase ycnE) was “indeed inhibited”.

With “ath-miR827: GELN-derived miRNA, SEQ ID NO: 81 (UUAGAUGACCAUCAACAAACU; expressed or natural sequence)” the “LGG entry into MC38 cells” value (MC-38 cells) was “could prevent the entry of LGG into gut epithelial cells”.

In the case of `NC(=O)Cc1c[nH]c2ccccc12` [I3AM, indole-3-acetamide], the “production of IAAld and I3A by LGG” value (LGG; MRS media, different concentrations of I3AM) was “inhibited the production of IAAld and I3A in a dose-dependent manner”, the “GELN-RNA-mediated induction of the I3A precursor IAAld in LGG cultures” value (LGG; addition of I3AM to LGG cultures) was “significantly inhibited” and the “inhibitory effect on IL-22 production in AHR KO mice” value (IL-22, IL-1β, TNFα; AHR KO mice treated with LGG supernatant exposed to I3AM) was “did not occur”.

For “ath-miR842: GELN-derived miRNA, SEQ ID NO: 82 (UCAUGGUCAGAUCCGUCAUCC; expressed or natural sequence)”, the “LGG entry into MC38 cells” value (MC-38 cells) was “could prevent the entry of LGG into gut epithelial cells”.

Reference: patent US12036262B2, “Edible plant-derived nanoparticles for regulation of gut microbiota” (University of Louisville Research Foundation, Inc., priority 2017, dated 2024)
